Source: US10676479B2, “Imidazolepyridine compounds and uses thereof” (Novartis AG, priority 2016, dated 2020)
Like-named read-outs stand apart in the source and are kept apart here.

Key:
EED (1-441)-His protein = EED (1-441)-His protein (Homo sapiens (Human), UniProt O75530); test: EED-H3K27Me3 peptide competition binding assay by AlphaScreen; settings: EED Alphascreen binding Qualified assay
[1] = target: wild type PRC2 (wtPRC2) complex (Homo sapiens (Human), UniProt O75530); test: EED LC-MS assay; assay type: biochemical
Experimental: EED LC-MS Assay Representative compounds of the present invention were serially and separately diluted 3-fold in DMSO to obtain a total of eight or twelve concentrations. […] A 6 μL solution of 3 μM of the peptide substrate H3K27Me0 (histone H3[21-44]-biotin) in reaction buffer was added to initiate each reaction. […] The data were then fit to a dose response equation using the program Helios to get the IC50 values of the test compound.

[2] = tested on: H3K27 methylation in G401 cell; test: ELISA (H3K27 methylation) assay; assay type: cell-based; settings: Homo sapiens, G-401, ELISA Qualified assay, 48 h, read-out: (c) IC50
Summary of the method: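 G401 cells given 3-fold serial dilutions (eight or twelve points, top 20 μM) for 48 h. Lysate ELISA for H3K27 methylation normalized to H3 signal, % inhibition versus DMSO, IC50 from dose-response fit.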

[3] = EED LC-MS Qualified assay, read-out: (b) IC50

Chain of EED (1-441)-His protein (O75530 whole entry): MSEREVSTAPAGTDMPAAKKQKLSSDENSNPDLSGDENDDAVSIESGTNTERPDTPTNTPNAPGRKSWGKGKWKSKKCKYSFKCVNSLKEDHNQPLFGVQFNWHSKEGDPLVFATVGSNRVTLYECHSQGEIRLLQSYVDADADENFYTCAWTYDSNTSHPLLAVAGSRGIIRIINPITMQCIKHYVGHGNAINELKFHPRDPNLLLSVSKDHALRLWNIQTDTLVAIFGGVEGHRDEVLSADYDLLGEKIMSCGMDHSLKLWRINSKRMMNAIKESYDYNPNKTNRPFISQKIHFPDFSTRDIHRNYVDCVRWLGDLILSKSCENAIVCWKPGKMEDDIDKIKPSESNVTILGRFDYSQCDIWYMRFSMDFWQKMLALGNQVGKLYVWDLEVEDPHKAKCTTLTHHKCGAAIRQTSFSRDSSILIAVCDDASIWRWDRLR
Chain of wild type PRC2 (wtPRC2) complex (O75530 whole entry): as above
Chain of wild type PRC2 (wtPRC2) complex (Q15910 whole entry partner): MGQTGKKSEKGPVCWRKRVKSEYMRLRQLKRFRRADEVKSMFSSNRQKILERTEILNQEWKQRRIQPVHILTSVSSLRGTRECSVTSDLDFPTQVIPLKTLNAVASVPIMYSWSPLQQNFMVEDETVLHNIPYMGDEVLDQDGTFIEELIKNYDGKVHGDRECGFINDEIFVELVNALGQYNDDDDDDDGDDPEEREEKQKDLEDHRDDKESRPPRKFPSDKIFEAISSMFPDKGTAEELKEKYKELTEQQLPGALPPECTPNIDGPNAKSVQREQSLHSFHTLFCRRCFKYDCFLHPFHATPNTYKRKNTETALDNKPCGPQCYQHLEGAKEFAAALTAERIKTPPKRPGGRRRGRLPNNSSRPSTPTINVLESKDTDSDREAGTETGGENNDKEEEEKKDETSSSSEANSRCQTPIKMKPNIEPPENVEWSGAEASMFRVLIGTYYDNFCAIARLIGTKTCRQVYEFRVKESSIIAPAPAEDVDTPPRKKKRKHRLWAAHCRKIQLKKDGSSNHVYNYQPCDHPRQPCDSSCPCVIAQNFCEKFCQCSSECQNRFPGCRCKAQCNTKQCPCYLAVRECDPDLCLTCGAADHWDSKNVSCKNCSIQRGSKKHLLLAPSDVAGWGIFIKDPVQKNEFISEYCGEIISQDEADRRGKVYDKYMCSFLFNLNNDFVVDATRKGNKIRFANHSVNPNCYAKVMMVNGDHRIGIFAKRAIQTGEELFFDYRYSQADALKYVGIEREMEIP
Chain of wild type PRC2 (wtPRC2) complex (Q15022 whole entry partner): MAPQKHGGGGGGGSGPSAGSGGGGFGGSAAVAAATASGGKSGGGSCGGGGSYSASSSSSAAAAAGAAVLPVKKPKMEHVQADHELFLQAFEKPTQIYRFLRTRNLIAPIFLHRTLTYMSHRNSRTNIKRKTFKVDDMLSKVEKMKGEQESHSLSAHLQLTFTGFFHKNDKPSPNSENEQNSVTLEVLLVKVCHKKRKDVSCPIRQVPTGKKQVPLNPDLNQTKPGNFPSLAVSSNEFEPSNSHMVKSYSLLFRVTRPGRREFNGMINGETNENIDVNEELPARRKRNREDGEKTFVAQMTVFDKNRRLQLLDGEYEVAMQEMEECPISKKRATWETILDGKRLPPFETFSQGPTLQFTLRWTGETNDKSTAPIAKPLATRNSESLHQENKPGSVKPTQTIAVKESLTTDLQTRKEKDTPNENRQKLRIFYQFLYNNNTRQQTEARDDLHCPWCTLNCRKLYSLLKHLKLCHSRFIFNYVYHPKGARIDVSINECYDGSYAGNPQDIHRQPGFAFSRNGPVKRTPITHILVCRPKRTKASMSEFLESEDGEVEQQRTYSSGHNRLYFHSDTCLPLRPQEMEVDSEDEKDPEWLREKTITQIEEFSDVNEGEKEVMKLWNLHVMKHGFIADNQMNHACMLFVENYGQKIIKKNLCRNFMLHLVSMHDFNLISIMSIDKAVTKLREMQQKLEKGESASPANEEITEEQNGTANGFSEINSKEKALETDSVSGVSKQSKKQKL

SMILES | IC50 (EED (1-441)-His protein) [nM] | IC50 [1, 3] [nM] | IC50 [2] [nM] | IC50 [1] [nM]
CNC(=O)c1ncn2c(NCc3c(F)ccc4c3CCO4)ncc(-c3cccnc3C)c12 [Example 2, 5-(((5-Fluoro-2,3-dihydrobenzofuran-4-yl)methyl)amino)-N-methyl-8-(2-methylpyridin-3-yl)imidazo[1,5-c]pyrimidine-1-carboxamide] | 12.3 | 26.7 | 12.6 | 
CS(=O)(=O)c1ccc(-c2cnc(NCc3c(F)ccc4c3CCO4)n3cncc23)cc1 [Example 19, N-((5-fluoro-2,3-dihydrobenzofuran-4-yl)methyl)-8-(4-(methylsulfonyl)phenyl)imidazo[1,5-c]pyrimidin-5-amine] | 8.5 | 10.4 | 60.1 | 
Cc1ncccc1-c1cnc(NCc2c(F)ccc3c2CCO3)n2cnc(C#C[Si](C)(C)C)c12 [Example 116, N-((5-fluoro-2,3-dihydrobenzofuran-4-yl)methyl)-8-(2-methylpyridin-3-yl)-1-((trimethylsilyl)ethynyl)imidazo[1,5-c]pyrimidin-5-amine] | 8.3 |  | 90 | 8.7
Cc1ncc(-c2cnc(NCc3c(F)ccc4c3CCO4)n3cnc(-c4ncco4)c23)c(C)n1 [Example 11, 8-(2,4-dimethylpyrimidin-5-yl)-N-((5-fluoro-2,3-dihydrobenzofuran-4-yl)methyl)-1-(oxazol-2-yl)imidazo[1,5-c]pyrimidin-5-amine] | 12.6 | 17.1 | 6.9 | 
NS(=O)(=O)c1ccc(-c2cnc(NCc3c(F)ccc4c3CCO4)n3cncc23)cc1 [Example 23, 4-(5-(((5-fluoro-2,3-dihydrobenzofuran-4-yl)methyl)amino)imidazo[1,5-c]pyrimidin-8-yl)benzenesulfonamide] | 12.7 | 12.9 | 33.6 | 

Further lines, with some results ahead:

IC50 (EED (1-441)-His protein) [nM] | IC50 [1, 3] [nM] | IC50 [2] [nM] | SMILES | IC50 [1] [nM]
10.3 | 12.6 | 50.9 | Cc1ccc(-c2cnc(NCc3c(F)ccc4c3CCO4)n3cncc23)c(C)n1 [Example 43, 8-(2,6-dimethylpyridin-3-yl)-N-((5-fluoro-2,3-dihydrobenzofuran-4-yl)methyl)imidazo[1,5-c]pyrimidin-5-amine] | 
10.5 | 16.4 | 34.1 | Cc1cc(-c2cnc(NCc3c(F)ccc4c3CCO4)n3cncc23)ccc1S(C)(=O)=O [Example 48, N-((5-fluoro-2,3-dihydrobenzofuran-4-yl)methyl)-8-(3-methyl-4-(methylsulfonyl)phenyl)imidazo[1,5-c]pyrimidin-5-amine] | 
7.5 | 12.5 | 54.1 | Cc1nc(C(F)F)ccc1-c1cnc(NCc2c(F)ccc3c2CCO3)n2cncc12 [Example 57, 8-(6-(difluoromethyl)-2-methylpyridin-3-yl)-N-((5-fluoro-2,3-dihydrobenzofuran-4-yl)methyl)imidazo[1,5-c]pyrimidin-5-amine] | 
16 | 14.6 | 68.6 | CCOC(=O)c1ncn2c(NCc3c(F)cccc3OC)ncc(-c3cccnc3C)c12 [Example 99, ethyl 5-((2-fluoro-6-methoxybenzyl)amino)-8-(2-methylpyridin-3-yl)imidazo[1,5-c]pyrimidine-1-carboxylate] | 
13 | 25.5 | 98.7 | Cc1nc(C(F)(F)CN2CCCC2)ccc1-c1cnc(NCc2c(F)ccc3c2CCO3)n2cncc12 [Example 59, 8-(6-(1,1-difluoro-2-(pyrrolidin-1-yl)ethyl)-2-methylpyridin-3-yl)-N-((5-fluoro-2,3-dihydrobenzofuran-4-yl)methyl)imidazo[1,5-c]pyrimidin-5-amine] | 
139 | 56.8 | 337 | COc1cccc(F)c1CNc1ncc(-c2cccnc2C)c2c(C#N)ncn12 [Example 90, 5-((2-fluoro-6-methoxybenzyl)amino)-8-(2-methylpyridin-3-yl)imidazo[1,5-c]pyrimidine-1-carbonitrile] | 
